Laboratory results taken from patent US9724351B2, “Compounds for the treatment of paramoxyvirus viral infections” (priority 2012, dated 2017).

Key:
[1] = system: Respiratory Syncytial Virus (RSV) long strain (ATCC#VR-26); assay: RSV Antiviral Assay (CPE reduction assay); assay type: cell-based; settings: human respiratory syncytial virus, 120 h; HEp-2 cells infected with RSV long strain, 5 days, CCK-8 readout; bins (Table 2: less than 1 μM; Table 3: equal to or higher than 1 μM and less than 50 μM); read-out: 50% effective concentration (EC50)
Method: CPE reduction assays are performed as described by Sidwell and Huffman et al., Appl. Microbiol. (1971) 22(5):797-801 with slight modifications. HEp-2 cells (ATCC#, CCL-23) are seeded at a density of 1,500 cells/30 μl/well into the 384-well cell plate(s) (Corning#3701) one day prior to the assay. Compounds are added into 384-well cell plates by Labcyte POD 810 Plate Assembler system. Each of the test compounds is provided to duplicate wells of a 384-well cell plate at final concentrations starting from 100 μM or 1 μM using ⅓ stepwise dilutions for 9 points. Quick-thaw Respiratory Syncytial Virus (RSV) long strain (ATCC#VR-26) stock in a 37° C. water bath. Place on ice until ready to use. Viruses are diluted to the concentration of 100 TCID50/30 μl with medium and 30 μl diluted RSV are added into related wells of 384-well cell plates. For each plate, sixteen wells are set aside as uninfected, untreated cell controls (CC), and nine wells per test plate receive virus only as a control for virus replication (VC). The final DMSO concentration of all wells is 1%. Place the plates at 37° C., 5% CO2 for 5 days.
After 5 days incubation, observe the CPE of cells in all wells. […] Six μl of cell counting kit-8 reagent (CCK-8, Dojindo Molecular Technologies Inc., CK04-20) are added to each well, which allows colorimetric assays to determine the number of viable cells through the dehydrogenase activity detection. After 3-4 hour incubation, the absorbance of each well is measured with a spectrophotometric plate reader at 450 nm wavelength, using a 630 nm filter as background according to manufacturer's instruction. The 50% effective concentration (EC50) is calculated by using regression analysis, based on the mean O.D. at each concentration of compound.

[2] = Cytotoxicity Determination; assay type: cell-based; settings: human, HEp-2 cells, without addition of virus, CCK-8 readout, bins (Table 4: greater than 100 μM; Table 5: equal to or less than 100 μM and greater than 10 μM), read-out: 50% cytotoxicity concentration (CC50)
Method: In order to determine the compound cytotoxicity, in parallel, each of the compounds is applied to duplicate wells in a 384-well cell plate at serial final concentrations starting from 100 μM using ½ stepwise dilutions for 7 points without addition of virus. Incubate the cells at 37° C., 5% CO2 for 5 days. Add 6 μl CCK-8 into each well and incubate in a CO2 incubator at 37° C. for 3-4 hours. Read the plates to obtain the optical densities which are used to calculate 50% cytotoxicity concentration (CC50).

Row | SMILES | EC50 [1] | CC50 at 5 days [2]
1 | CCN(CC)c1ccc(C(=O)NCC(=O)c2ccc(OC)c(-c3ccc(F)c(Cl)c3)n2)cc1 [Compound 1320] | 1 to 50 µM | > 100 µM
2 | COc1ccc(C(=O)NCC(=O)c2ccc(OC)c(-c3cccc4ncccc34)n2)cc1OC [Compound 1519] | 1 to 50 µM | 10 to 100 µM
3 | COc1ccc(C(=O)NCC(=O)N/N=C(\C)c2csc3ncccc23)cc1OC [Compound 400-10] | 1 to 50 µM | > 100 µM
4 | COc1ccc(C(=O)NCC(=O)c2ccc(OC)c(-c3cccc(F)c3)n2)cc1OC [Compound 1527] | 1 to 50 µM | > 100 µM
5 | COc1cc(OC)c(C(=O)NCC(=O)N/N=C(\C)c2csc3ccccc23)cc1OC [Compound 480] | 1 to 50 µM | > 100 µM
6 | COc1cc(C(=O)NCC(=O)c2ccc(OC)c(-c3ccc(Cl)c(Cl)c3)n2)ccc1OCCO [Compound 1616] | < 1 µM | > 100 µM
7 | CCCC/C(=N\NC(=O)CNC(=O)c1ccc(OC(C)C)c(OC)c1)c1csc2ccccc12 [Compound 476] | < 1 µM | > 100 µM
8 | COc1ccc(C(=O)NCC(=O)N2CCC(c3csc4c(F)cccc34)=N2)cc1OC [Compound 1100] | 1 to 50 µM | 10 to 100 µM
9 | COc1cc(C(=O)NCC(=O)c2ccc3c(n2)-c2c(sc4c(F)cccc24)CO3)ccc1OCCO [Compound 2703] | 1 to 50 µM | 10 to 100 µM
10 | COc1cc(C(=O)NCC(=O)c2cc(C(C)(C)C)cc(-c3ccc(F)c(Cl)c3)n2)ccc1OCCO [Compound 2115] | < 1 µM | 10 to 100 µM
11 | CNC(=O)c1ccc(-c2nc(C(=O)CNC(=O)c3ccc(OC)c(OC)c3)ccc2OC)cc1 [Compound 1504] | 1 to 50 µM | > 100 µM
12 | COc1ccc(C(=O)NCC(=O)c2ccc(O)c(-c3csc4c(F)cccc34)n2)cc1OC [Compound 1335] | < 1 µM | 10 to 100 µM
13 | C/C=C\c1cc(C(=O)CNC(=O)c2ccc(OC)c(OC)c2)nc(-c2csc3c(F)cccc23)c1 [Compound 1243] | 1 to 50 µM | > 100 µM
14 | COC(=O)c1cc(C(=O)CNC(=O)c2ccc(OCCO)c(OC)c2)nc(-c2csc3c(F)cccc23)c1 [Compound 1257] | 1 to 50 µM | > 100 µM
15 | COCC/C(=N\NC(=O)CNC(=O)c1ccc(OC)c(OC)c1)c1csc2ccccc12 [Compound 493] | < 1 µM | > 100 µM
16 | COc1cc(C(=O)NCC(=O)N/N=C(\C)c2csc3ccccc23)ccc1OCC1CC1 [Compound 510] | < 1 µM | 10 to 100 µM
17 | COc1cc(C(=O)NCC(=O)c2ccc(OC)c(-c3c[s+]([O-])c4c(F)cccc34)n2)ccc1OCCO (centres unmarked) [Compound 3302] | < 1 µM | 10 to 100 µM
18 | COc1cc(C(=O)NCC(=O)N(C)/N=C/c2c(F)sc3c(F)cccc23)ccc1OCCO [Compound 2304] | 1 to 50 µM | 10 to 100 µM
19 | COc1cc(C(=O)NCC(=O)c2cccc(-c3csc4c(F)cccc34)n2)ccc1OCCn1ccnc1 [Compound 1246] | 1 to 50 µM | 10 to 100 µM
20 | COc1ccc(C(=O)NCC(=O)c2ccc(OC)c(-c3ccc(N4CCOCC4)cc3)n2)cc1OC [Compound 1506] | 1 to 50 µM | 10 to 100 µM
21 | CCN(CC)c1ccc(C(=O)NCC(=O)N/N=C(\C)c2csc3ccccc23)cc1OC [Compound 500] | 1 to 50 µM | > 100 µM
22 | COc1ccc(C(=O)NCC(=O)c2nc(-c3csc4c(F)cccc34)cs2)cc1OC [Compound 1206] | 1 to 50 µM | 10 to 100 µM
23 | COc1ccc(C(=O)NCC(=O)N/N=C(\CCc2ccccc2)c2csc3ccccc23)cc1OC [Compound 495] | 1 to 50 µM | 10 to 100 µM
24 | CCCn1nc(-c2csc3c(F)cccc23)nc1C(=O)CNC(=O)c1ccc(OC)c(OC)c1 [Compound 2203] | 1 to 50 µM | > 100 µM
25 | COc1ccc(C(=O)NCC(=O)N/N=C(\C)c2csc3c(N)cccc23)cc1OC [Compound 497] | 1 to 50 µM | > 100 µM
26 | COc1cc(C(=O)NCC(=O)c2cc(C(C)C)cc(-c3csc4c(F)cccc34)n2)ccc1OCCO [Compound 1227] | < 1 µM | 10 to 100 µM
27 | COc1cc(C(=O)NCC(=O)c2ccc(OC)c(-c3c[nH]c4c(F)cccc34)n2)ccc1OCCO [Compound 1342] | < 1 µM | > 100 µM

Row | SMILES | EC50 [1] | CC50 at 5 days [2]
28 | COc1cc(C(=O)NCC(=O)c2ccc(OC)c(-c3coc4c(F)cccc34)n2)ccc1OCCO [Compound 1343] | < 1 µM | > 100 µM
29 | COc1cc(C(=O)NCC(=O)c2ccc(OC)c(-c3ccnc(F)c3)n2)ccc1OCCO [Compound 1610] | 1 to 50 µM | > 100 µM
30 | C/C(=N\NC(=O)CNC(=O)c1ccc(N2CCCC2)cc1)c1csc2ccccc12 [Compound 468] | 1 to 50 µM | > 100 µM
31 | COc1ccc(C(=O)NC(C)C(=O)c2ccc(OC)c(-c3csc4c(F)cccc34)n2)cc1OC (centres unmarked) [Compound 1824] | < 1 µM | > 100 µM
32 | COc1ccc(C(=O)NCC(=O)c2ccc(OC)c(-c3cc(C(=O)NC4CCCCC4)ccc3F)n2)cc1OC [Compound 1514] | 1 to 50 µM | > 100 µM
33 | COc1ccc(C(=O)NCC(=O)c2ccc(OC)c(-c3ccc(F)cc3)n2)cc1OC [Compound 1515] | < 1 µM | > 100 µM
34 | CCc1cc(C(=O)CNC(=O)c2ccc(OCCO)c(OC)c2)nc(-c2ccc(F)cc2)c1 [Compound 2109] | < 1 µM | 10 to 100 µM
35 | COc1ccc(C(=O)NCC(=O)N/N=C(\C)c2csc3cc(F)ccc23)cc1OC [Compound 400-22] | 1 to 50 µM | 10 to 100 µM
36 | COc1ccc(C(=O)NCC(=O)N/N=C(\C)c2c(OC)sc3ccccc23)cc1OC [Compound 400-19] | 1 to 50 µM | 10 to 100 µM
37 | COc1ccc(C(=O)NCC(=O)N/N=C(\C)c2csc3ccc(F)cc23)cc1OC [Compound 422] | 1 to 50 µM | 10 to 100 µM
38 | COc1ccc(C(=O)NC(CCC(=O)O)C(=O)c2ccc(OC)c(-c3csc4c(F)cccc34)n2)cc1OC (centres unmarked) [Compound 1821] | < 1 µM | 10 to 100 µM
39 | COc1ccc(C(=O)NCC(=O)N/N=C(/c2ccccc2)c2ccc(F)cc2)cc1OC [Compound 430] | 1 to 50 µM | > 100 µM
40 | COc1cc(C(=O)NCC(=O)c2ccc(OC)c(-c3ccc(F)c(Cl)c3)n2)ccc1OCC1(N)CC1 [Compound 1307] | 1 to 50 µM | 
41 | CCN(CC)c1ccc(C(=O)NCC(=O)N/N=C(\C)c2csc3ccccc23)cc1N(CC)CC [Compound 506] | 1 to 50 µM | 
42 | COc1cc(C(=O)NCC(=O)c2ccc(OC)c(-c3ccc(F)c(Cl)c3)n2)ccc1OCCO [Compound 1310] | < 1 µM | 
43 | COc1ccc(C(=O)NCC(=O)c2ccc(OC)c(-c3cncc4ccccc34)n2)cc1OC [Compound 1512] | 1 to 50 µM | 
44 | COc1cc(C(=O)NCC(=O)c2ccc(OC)c(-c3ccc(F)c(Cl)c3)n2)ccc1-c1cccnc1 [Compound 2504] | 1 to 50 µM | 
45 | COc1cc(C(=O)NCC(=O)c2ccc(OC)c(-c3ccc(F)c(Cl)c3)n2)ccc1-c1ccncc1 [Compound 2507] | 1 to 50 µM | 
46 | COc1ccc(C(=O)NCC(=O)c2ccc(OC)c(-c3ccccc3-c3ccccc3)n2)cc1OC [Compound 1523] | 1 to 50 µM | 
47 | C#Cc1cc(C(=O)CNC(=O)c2ccc(OCCO)c(OC)c2)nc(-c2csc3c(F)cccc23)c1 [Compound 4216] | 1 to 50 µM | 
48 | COc1cc(C(=O)NCC(=O)N/N=C/c2csc3ccccc23)ccc1Cl [Compound 215] | 1 to 50 µM | 
49 | CCOc1ccc(C(=O)NCC(=O)Nc2nc3ccccc3n2CCOC)cc1OC [Compound 913] |  | > 100 µM
50 | CCOc1ccc(C(=O)NCC(=O)Nc2nc3cc(F)ccc3n2CCOC)cc1OC [Compound 914] |  | > 100 µM
51 | COc1cc(C(=O)NCC(=O)c2ccc(OC)c(-c3ccc(F)c(Cl)c3)n2)ccc1OC1CC(N)C1 (centres unmarked) [Compound 1359] | < 1 µM | 
52 | COc1ccc(C(=O)NN(C)C(=O)c2cccc(-c3csc4c(F)cccc34)n2)cc1OC [Compound 3102] |  | 10 to 100 µM
53 | CCOc1ccc(C(=O)NCC(=O)N/N=C(\C)c2csc3cccnc23)cc1OC [Compound 465] |  | 10 to 100 µM
